The source of these data is ChEMBL document CHEMBL5465560, “Selectivity Literature for EUbOPEN Chemogenomic Library” (2024).

Test [1] addresses T1, Tyrosine-protein kinase JAK3 (Homo sapiens) (UniProt P52333).
T1 sequence (whole entry): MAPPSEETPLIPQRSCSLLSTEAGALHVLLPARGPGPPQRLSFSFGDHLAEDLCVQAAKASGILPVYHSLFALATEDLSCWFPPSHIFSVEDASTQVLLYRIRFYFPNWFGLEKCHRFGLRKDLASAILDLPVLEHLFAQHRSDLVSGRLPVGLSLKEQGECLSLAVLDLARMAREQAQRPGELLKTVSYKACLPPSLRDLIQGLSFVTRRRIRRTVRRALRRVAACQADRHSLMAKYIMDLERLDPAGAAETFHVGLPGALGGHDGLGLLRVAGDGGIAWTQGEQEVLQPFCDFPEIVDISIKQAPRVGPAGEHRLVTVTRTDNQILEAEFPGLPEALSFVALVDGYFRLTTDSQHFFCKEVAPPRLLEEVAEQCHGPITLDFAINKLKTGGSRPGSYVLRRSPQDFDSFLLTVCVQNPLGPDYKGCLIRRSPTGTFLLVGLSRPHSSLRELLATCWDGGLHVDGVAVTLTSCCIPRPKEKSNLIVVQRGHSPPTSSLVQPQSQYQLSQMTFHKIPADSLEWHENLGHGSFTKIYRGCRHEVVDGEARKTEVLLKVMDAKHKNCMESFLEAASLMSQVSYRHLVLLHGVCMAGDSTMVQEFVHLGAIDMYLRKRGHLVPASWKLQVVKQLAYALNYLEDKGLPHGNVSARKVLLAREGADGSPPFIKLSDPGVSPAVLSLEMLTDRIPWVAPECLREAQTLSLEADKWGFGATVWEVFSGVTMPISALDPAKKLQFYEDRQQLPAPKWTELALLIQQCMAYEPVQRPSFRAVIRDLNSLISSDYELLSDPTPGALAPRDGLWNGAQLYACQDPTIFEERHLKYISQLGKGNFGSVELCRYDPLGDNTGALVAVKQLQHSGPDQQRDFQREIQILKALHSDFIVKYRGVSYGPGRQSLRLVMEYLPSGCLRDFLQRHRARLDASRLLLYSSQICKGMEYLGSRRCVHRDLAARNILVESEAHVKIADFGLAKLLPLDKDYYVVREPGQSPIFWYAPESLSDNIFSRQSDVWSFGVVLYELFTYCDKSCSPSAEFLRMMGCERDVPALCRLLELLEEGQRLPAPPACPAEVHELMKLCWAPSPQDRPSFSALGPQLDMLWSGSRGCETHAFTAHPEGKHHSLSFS
Nature of the test: Selectivity interaction (Kinase panel (Carna Biosciences)) EUB0001542aTs JAK3. As to conditions: at 1 µM.

Test [2] has as its target Serine/threonine-protein kinase MRCK alpha (Homo sapiens) (UniProt Q5VT25). Put plainly: Selectivity interaction (Ambit KINOMEscan and KiNATiv profiling in Jurkat cells) EUB0000090b CDC42BPA. The format is cell-based. As to conditions: at 1 µM.
Test [3] concerns the target Serine/threonine-protein kinase MRCK beta (Homo sapiens) (UniProt Q9Y5S2). As to conditions: at 10 µM.
In test [4] the target is T2, Eukaryotic elongation factor 2 kinase (Homo sapiens) (UniProt O00418).
T2 sequence (whole entry): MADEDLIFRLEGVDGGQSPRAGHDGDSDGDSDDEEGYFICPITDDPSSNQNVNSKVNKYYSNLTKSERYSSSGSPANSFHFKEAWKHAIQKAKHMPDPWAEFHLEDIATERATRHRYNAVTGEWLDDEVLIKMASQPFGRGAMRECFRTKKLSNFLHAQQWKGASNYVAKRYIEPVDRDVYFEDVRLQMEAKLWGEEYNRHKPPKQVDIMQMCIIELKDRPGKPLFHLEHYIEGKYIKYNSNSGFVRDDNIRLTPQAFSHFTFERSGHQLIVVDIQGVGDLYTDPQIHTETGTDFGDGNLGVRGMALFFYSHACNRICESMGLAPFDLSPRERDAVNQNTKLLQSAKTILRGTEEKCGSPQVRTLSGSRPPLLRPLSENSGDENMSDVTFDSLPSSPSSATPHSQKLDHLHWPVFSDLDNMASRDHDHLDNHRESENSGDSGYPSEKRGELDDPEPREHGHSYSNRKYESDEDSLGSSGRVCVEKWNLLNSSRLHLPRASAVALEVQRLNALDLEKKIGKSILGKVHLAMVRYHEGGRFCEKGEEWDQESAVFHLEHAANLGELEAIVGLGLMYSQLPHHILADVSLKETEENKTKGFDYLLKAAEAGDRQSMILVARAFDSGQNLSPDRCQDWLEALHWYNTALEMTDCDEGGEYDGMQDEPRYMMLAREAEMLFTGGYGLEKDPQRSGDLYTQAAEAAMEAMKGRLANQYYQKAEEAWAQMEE
Put plainly: Selectivity interaction (ActivX KiNativ screen (ex vivo kinase selectivity in human PBMCs)) EUB0001619a EEF2K. The format is cell-based. As to conditions: PBMC, at 1 µM.

Test [5] addresses T3, Aurora kinase A (Homo sapiens) (UniProt O14965).
T3 sequence (whole entry): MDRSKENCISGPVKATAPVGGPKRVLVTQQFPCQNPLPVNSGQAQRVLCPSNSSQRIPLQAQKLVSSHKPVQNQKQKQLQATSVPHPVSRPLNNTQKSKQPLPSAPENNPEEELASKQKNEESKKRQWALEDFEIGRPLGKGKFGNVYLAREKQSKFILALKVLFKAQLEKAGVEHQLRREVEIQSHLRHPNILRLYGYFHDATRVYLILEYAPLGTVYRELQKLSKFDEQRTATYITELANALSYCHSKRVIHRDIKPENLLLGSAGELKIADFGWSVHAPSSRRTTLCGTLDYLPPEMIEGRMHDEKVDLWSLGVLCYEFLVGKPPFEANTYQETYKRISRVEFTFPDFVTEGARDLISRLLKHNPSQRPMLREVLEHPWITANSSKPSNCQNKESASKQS
Nature of the test: Selectivity interaction (Kinase panel (DSF assay)) EUB0001489b STK6.

Sequence of Serine/threonine-protein kinase MRCK alpha (Homo sapiens) (Q5VT25 whole entry): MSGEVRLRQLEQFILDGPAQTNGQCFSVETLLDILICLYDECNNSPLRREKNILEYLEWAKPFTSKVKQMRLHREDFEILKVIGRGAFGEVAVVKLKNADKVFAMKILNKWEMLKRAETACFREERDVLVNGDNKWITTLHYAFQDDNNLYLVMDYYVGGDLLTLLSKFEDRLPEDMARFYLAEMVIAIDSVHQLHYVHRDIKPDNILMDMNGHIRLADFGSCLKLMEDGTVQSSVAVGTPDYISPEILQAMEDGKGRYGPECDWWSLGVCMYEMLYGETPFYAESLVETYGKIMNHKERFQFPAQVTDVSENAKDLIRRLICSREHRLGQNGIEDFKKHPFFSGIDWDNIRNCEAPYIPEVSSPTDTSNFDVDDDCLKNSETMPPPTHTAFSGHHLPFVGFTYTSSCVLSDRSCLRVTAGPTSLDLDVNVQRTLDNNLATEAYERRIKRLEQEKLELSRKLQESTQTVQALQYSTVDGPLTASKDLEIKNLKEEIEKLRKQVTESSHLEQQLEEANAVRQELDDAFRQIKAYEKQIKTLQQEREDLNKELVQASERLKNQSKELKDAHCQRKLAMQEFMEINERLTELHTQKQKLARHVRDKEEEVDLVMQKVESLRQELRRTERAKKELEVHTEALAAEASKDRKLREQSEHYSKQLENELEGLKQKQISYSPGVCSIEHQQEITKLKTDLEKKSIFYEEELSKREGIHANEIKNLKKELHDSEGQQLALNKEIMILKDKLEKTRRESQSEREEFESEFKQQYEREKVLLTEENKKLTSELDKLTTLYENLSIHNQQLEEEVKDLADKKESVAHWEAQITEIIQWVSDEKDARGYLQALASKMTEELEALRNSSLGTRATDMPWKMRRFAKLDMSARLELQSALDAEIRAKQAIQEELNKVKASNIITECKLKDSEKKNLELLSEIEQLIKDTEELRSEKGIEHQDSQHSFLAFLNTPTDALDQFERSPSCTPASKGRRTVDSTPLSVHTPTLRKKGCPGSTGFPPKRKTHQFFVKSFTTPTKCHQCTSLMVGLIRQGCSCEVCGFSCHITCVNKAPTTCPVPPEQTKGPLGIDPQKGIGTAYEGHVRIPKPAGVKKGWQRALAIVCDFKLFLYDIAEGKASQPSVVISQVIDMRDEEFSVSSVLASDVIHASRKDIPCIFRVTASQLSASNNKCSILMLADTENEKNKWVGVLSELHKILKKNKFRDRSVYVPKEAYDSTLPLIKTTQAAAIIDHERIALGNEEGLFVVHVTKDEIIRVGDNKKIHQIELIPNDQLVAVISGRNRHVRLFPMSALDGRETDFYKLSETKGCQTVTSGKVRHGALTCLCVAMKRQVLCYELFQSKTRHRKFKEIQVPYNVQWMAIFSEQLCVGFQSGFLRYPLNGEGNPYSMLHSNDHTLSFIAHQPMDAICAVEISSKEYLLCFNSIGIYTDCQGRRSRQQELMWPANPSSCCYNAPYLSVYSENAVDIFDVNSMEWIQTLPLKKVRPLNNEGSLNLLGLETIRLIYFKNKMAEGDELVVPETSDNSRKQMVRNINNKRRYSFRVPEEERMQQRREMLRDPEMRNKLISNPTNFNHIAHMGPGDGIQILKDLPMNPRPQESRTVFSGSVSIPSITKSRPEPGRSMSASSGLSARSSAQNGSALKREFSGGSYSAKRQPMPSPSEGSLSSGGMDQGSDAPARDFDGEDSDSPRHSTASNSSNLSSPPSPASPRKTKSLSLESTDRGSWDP
Sequence of Serine/threonine-protein kinase MRCK beta (Homo sapiens) (Q9Y5S2 whole entry): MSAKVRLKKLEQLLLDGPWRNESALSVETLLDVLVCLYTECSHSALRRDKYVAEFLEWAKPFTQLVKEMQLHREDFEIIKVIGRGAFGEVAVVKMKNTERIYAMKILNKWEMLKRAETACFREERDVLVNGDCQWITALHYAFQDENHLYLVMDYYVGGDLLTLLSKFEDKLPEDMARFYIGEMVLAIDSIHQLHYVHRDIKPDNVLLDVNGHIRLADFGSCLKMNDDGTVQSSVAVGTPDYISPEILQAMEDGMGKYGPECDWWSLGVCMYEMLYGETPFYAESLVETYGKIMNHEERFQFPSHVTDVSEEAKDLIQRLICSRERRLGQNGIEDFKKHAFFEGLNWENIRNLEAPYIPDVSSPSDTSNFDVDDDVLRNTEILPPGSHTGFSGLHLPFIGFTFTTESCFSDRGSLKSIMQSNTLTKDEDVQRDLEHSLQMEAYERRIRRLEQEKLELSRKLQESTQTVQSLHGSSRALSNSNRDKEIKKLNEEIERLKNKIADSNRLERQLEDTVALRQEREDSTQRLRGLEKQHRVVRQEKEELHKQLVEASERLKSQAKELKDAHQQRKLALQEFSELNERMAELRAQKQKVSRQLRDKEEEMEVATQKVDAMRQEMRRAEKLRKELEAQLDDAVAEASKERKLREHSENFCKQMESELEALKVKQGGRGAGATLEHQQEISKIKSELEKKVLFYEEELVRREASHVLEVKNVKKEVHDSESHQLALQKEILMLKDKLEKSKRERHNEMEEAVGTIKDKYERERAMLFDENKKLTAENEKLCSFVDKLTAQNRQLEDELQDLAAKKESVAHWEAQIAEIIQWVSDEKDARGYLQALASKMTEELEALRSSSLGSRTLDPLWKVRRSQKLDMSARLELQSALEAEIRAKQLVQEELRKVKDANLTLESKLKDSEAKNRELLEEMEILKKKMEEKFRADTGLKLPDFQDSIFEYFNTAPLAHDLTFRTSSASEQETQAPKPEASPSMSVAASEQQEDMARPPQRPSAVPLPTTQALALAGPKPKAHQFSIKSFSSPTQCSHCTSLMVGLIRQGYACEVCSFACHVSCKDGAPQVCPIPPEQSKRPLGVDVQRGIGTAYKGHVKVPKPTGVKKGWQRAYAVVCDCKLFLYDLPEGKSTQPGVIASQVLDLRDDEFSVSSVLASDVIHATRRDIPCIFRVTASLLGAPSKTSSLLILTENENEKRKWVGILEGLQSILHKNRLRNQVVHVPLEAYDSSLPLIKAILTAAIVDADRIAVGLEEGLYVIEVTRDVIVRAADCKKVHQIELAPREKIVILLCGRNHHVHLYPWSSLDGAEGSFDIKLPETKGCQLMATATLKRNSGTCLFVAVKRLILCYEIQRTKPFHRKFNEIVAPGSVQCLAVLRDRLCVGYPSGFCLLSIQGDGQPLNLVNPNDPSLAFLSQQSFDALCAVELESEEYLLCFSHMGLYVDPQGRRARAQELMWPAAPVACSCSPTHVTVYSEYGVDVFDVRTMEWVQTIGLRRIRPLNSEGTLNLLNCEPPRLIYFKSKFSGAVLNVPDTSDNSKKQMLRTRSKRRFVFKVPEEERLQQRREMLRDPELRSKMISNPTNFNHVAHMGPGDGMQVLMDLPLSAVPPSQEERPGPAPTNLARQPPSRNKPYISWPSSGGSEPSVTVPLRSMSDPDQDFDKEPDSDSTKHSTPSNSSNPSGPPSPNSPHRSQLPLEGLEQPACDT

The compound `Cn1cc(Nc2nccc(N3CC4CCC(C3)N4C(=O)[C@@H]3CC3(F)F)n2)cn1` had a % of inhibition in test [1] of 92%.

In the case of `CN(C)C/C=C/C(=O)Nc1ccc(C(=O)N2CCCC(Nc3ncc(Cl)c(-c4c[nH]c5ccccc45)n3)C2)cc1` (stereo not given), the % of control in test [2] was determined as 86%.

`Cc1cc([C@@H](C)Nc2ccccc2C(=O)O)c2nc(N3CCOCC3)cc(=O)n2c1` [AZD-6482]: the % of control in test [3] is 100%.

Compound `N#Cc1cccc(-c2c[nH]c3ncnc(N4CCOCC4)c23)c1` showed a % of inhibition in test [4] of 3%.

In test [5], `CN1CCN(C(=O)c2ccc3cc2OCCOCCNc2ccn4ncc-3c4n2)CC1` had a dTM of 4.2 K.
